From patent US20220211695A1, “MORPHINE-INDUCED RESPIRATORY DEPRESSION: BEHAVIORAL, PHRENIC AND BRAINSTEM RESPIRATORY NEURONAL EVIDENCE” (GEORGIA STATE UNIVERSITY RESEARCH FOUNDATION, INC., priority 2019, published 2022)

Tests used:
phrenic discharges [1] = assay: Phrenic discharge recording in spontaneously breathing rats after decerebration
Sprague Dawley rats = assay: Plethysmography of breathing after repetitive (chronic) morphine administrations, with or without cloperastine
From the text: A major adverse effect of the chronic use of opioid drugs is respiratory depression causing a […] in the United States. Via μ-Opioid receptors (MOR), respiratory neurons in the brainstem are known to be the targets, especially those in the ventral respiratory column (VRC). However, how the VRC neurons react to chronic opioid drugs remains elusive. To understand how chronic morphine exposures affect brainstem respiratory motor output, we performed these studies in Sprague Dawley rats, using repetitive morphine administrations. […] Since the MOR is coupled to GIRK channels, we applied Cloperastine, a GIRK channel blocker and a commercial OTC drug, to the rats before or after chronic morphine.
Disclosed herein are methods for treating chronic morphine exposures and how this exposure affects brainstem respiratory motor output. Disclosed herein are studies using Sprague Dawley rats, during which repetitive morphine administrations were conducted.

[2] = test system: rostral ventral respiratory group (rVRG) neurons; assay: Extracellular recording of firing activity of respiratory neurons in the ventral respiratory group; assay type: in vivo, Sprague Dawley rats
Description: Firing activity of respiratory neurons was recorded extracellularly in the ventral respiratory group.

phrenic discharges [3] = settings: rat, in vivo
[4] = 50 mg/kg morphine followed by 30 mg/kg cloperastine

Row | SMILES | ectopic phrenic activity during expiration (phrenic discharges [1]; after chronic morphine exposures) | effect on breathing (minute ventilation, variation of amplitude and frequency) (Sprague Dawley rats; 10 mg/kg morphine) | breathing depression after repetitive morphine administrations (Sprague Dawley rats; chronic morphine, Sprague Dawley rats) | time for the breathing effects to reach a plateau level (Sprague Dawley rats; repetitive morphine administrations) [days] | duration of minute ventilation suppression (Sprague Dawley rats; same dose morphine following the chronic treatments) [h] | suppression of minute ventilation (Sprague Dawley rats; same dose morphine following the chronic treatments, n=16 rats, plethysmography) | variations in tidal volume and breathing frequency (Sprague Dawley rats; same dose morphine following the chronic treatments, plethysmography) | E-I phase-spanning neurons in the ventral respiratory group ([2]; chronic morphine versus saline injection) | phrenic discharge pattern (FIG. 19) (phrenic discharges [1]; [4]) | erratic breathing (FIG. 8) (Sprague Dawley rats; 30 mg/kg cloperastine injected after 10 mg/kg morphine) | erratic breathing (FIG. 11) (Sprague Dawley rats; 30 mg/kg cloperastine injected first, then 10 mg/kg morphine) | effect on chronic morphine-induced central hypoventilation (Sprague Dawley rats; cloperastine applied before or after chronic morphine) | time at which a significant change in normalized minute ventilation occurs (FIG. 16) (Sprague Dawley rats; cloperastine given at 20 minutes post morphine) | effect on morphine's effects on breathing frequency (FIG. 13) (Sprague Dawley rats; cloperastine injection after morphine, normalized time course) | Te and Ti duration (FIG. 24) (phrenic discharges [3]) | Te/Ti ratio (FIG. 25) (phrenic discharges [3]) | breathing frequency (FIG. 26) (phrenic discharges [3]) | firing activity of rVRG neurons (FIG. 31) [2, 4]
1 | CN1CC[C@]23c4c5ccc(O)c4O[C@H]2[C@@H](O)C=C[C@H]3[C@H]1C5 [morphine] | Ectopic phrenic activity during expiration was seen | causes central hypoventilation with decreased breathing minute ventilation, increased variation of both breathing amplitude & frequency | severe breathing depression was found in these rats | 3 to 4 | 3 to 4 | 55.2%±4.1 | severe variations in tidal volume and breathing frequency | A large number of E-I phase-spanning neurons were observed |  |  |  |  |  |  |  |  |  | 
2 | Clc1ccc(C(OCCN2CCCCC2)c2ccccc2)cc1 (stereo not drawn) [cloperastine] |  |  |  |  |  |  |  |  | erratic phrenic activity has nearly completely subsided | reduction in erratic breathing | reduction in erratic breathing | reverses hypoventilation mainly by suppression the irregularity of breathing amplitude and frequency | about 45 minutes | reducing the effects of morphine of breathing frequency | nearly the same as the control | nearly identical to control | nearly identical to control | return to near normal firing activity
